According to paper PMC11614538, “The proline-rich antimicrobial peptide B7-005: low bacterial resistance, safe for human cells and effective in zebrafish embryo bacteraemia model” (Open Biology, 2024):
Residues, ends and D or L forms follow the SMILES beside them.

Key:
[1] = tested on: HUVECs; assay: Cell viability MTS, HUVEC; format: cell-based, human; details: 24 h
Protocol: (§1) Chronic lymphocytic leukaemia-derived MEC-1 cells were cultured in suspension using complete RPMI (EuroClone), supplemented with 100 U ml^−1 penicillin (Sigma), 100 μg ml^−1 streptomycin (Sigma), 2 mM L-glutamine and 10% (v/v) foetal bovine serum (FBS, EuroClone). A549 human lung carcinoma epithelial cells and immortalized human keratinocytes (HaCaT) were grown in adhesion in complete high glucose Dulbecco’s MEM (DMEM, EuroClone) supplemented with 100 U ml^−1 penicillin (Sigma), […] streptomycin (Sigma), 2 mM L-glutamine and 10% (v/v) of FBS. […] All cell lines were counted in a Bürker chamber and diluted to the desired working concentrations.
(§2) Cell viability was evaluated by tetrazolium salt (MTT, or MTS for HUVECs only) tests. […] The next day, absorbance was measured at 570 nm using a Nanoquant Infinite-M200Pro plate reader (Tecan, Switzerland).
(§3) HUVECs, 7500 cells per well, were seeded in HESFM with 10% FBS in a 96-well flat-bottomed microtitre plate (EuroClone SpA, Italy). […] The plate was then incubated for 2 h at 37°C in a humidified 5% CO2 atmosphere, and the absorbance was measured at 490 nm, using a spectrophotometer (PowerWaveX, Bio-Tek Instruments). The cytotoxicity was calculated by comparing the absorbance of peptide-treated samples with that of the untreated control and expressed in percentage of vitality. […]

[2] = tested on: HaCaT cells; assay: Cell viability MTT, HaCaT; format: cell-based, human; details: 24 h, DMEM, n ≥ 9
Protocol: as §1, §2, §3

[3] = tested on: zebrafish embryos; assay: In vivo toxicity in zebrafish embryos; details: for mortality of larvae: within 72 h, groups of 30, at least three independent experiments
Protocol: All experimental procedures were performed in compliance with relevant laws and institutional guidelines and were performed under the Italian Ministerial Approval (code 1FF80.N.A5X). Zebrafish eggs were placed in E3 Medium (5 mM NaCl, 0.17 mM KCl, 0.33 mM CaCl2, 0.33 mM MgSO4) and incubated at 28°C. Twenty-four hours post-fertilization (hpf), the eggs were manually dechorionated. Later, embryos were placed in E3 Medium supplemented with a final concentration of 0.2 mM phenylthiourea (PTU, Sigma-Aldrich Co.) to inhibit the production of melanin. Forty-eight hpf embryos were anaesthetized using tricaine at a final concentration of 0.02% (v/v) and placed on agarose plates, to remove the excess water and to facilitate injections. Each condition for toxicity evaluation and bacteraemia model was tested on groups of 30 embryos in at least three independent experiments. Only for biodistribution assay, groups of 10 embryos were used for two independent experiments. The injections of peptide or bacteria were performed in a volume of 4.6 nl delivered in the duct of Cuvier of embryos using capillary glass and a Nanoject II Auto-Nanoliter Injector (Drummond Scientific Co., Broomall, PA, USA) and a SteREO Microscope Discovery.V8 (Zeiss, Oberkochen, Germany, UE).
In vivo toxicity of B7-005 was evaluated by injecting 4.6 nl of sterile PBS containing increasing concentrations of the peptide (up to 64 mg kg^−1) in the duct of Cuvier of embryos. PBS only was injected in untreated control groups. The toxicity of the compound was assessed evaluating the mortality of larvae, kept in E3 medium at 28°C, within 72 h after injection.

[4] = tested on: a human cell line; details: ref [20]; cited from earlier work
From the text: In a previous work, we systematically modified Bac7(1-16), an active N-terminal fragment of the natural PrAMP full-length Bac7 [19], to identify the amino acid residues essential for inhibiting protein synthesis, with the goal to discover new derivatives with improved antimicrobial activity. […] B7-005 ...

[5] = tested on: MEC-1 cells; assay: Cell viability MTT, MEC-1; format: cell-based, human; details: MEC-1, 24 h, RPMI, n ≥ 9
Protocol: as §1, §2, §3

In the case of `CC[C@H](C)[C@H](NC(=O)[C@H](CCCNC(=N)N)NC(=O)[C@@H](N)Cc1c[nH]c2ccccc12)C(=O)N[C@@H](CCCNC(=N)N)C(=O)N[C@@H](CCCNC(=N)N)C(=O)N[C@@H](CCCNC(=N)N)C(=O)N[C@@H](Cc1c[nH]c2ccccc12)C(=O)N1CCC[C@H]1C(=O)N[C@@H](CCCNC(=N)N)C(=O)N[C@@H](CC(C)C)C(=O)N1CCC[C@H]1C(=O)N[C@@H](CCCNC(=N)N)C(=O)N1CCC[C@H]1C(=O)N[C@@H](CCCNC(=N)N)C(=O)N[C@@H](Cc1c[nH]c2ccccc12)C(=O)N[C@@H](CCCNC(=N)N)C(=O)O` [B7-005] (H-WRIRRRWPRLPRPRWR-OH), the “concentration up to which there were no detectable effects” value [1] is reported as no less than 128 µM, the IC50 ([1]; MTS, HESFM + 10% FBS, n ≥ 9) is reported as roughly 256 µM and the IC50 [2] is reported as less than 128 µM. The mortality of larvae ([3]; 24 mg kg^−1, injected in duct of Cuvier, untreated control 10%) was no more than 20%, the mortality of larvae ([3]; 32 mg kg^−1, injected in duct of Cuvier) was ~ 40% and the “lowest concentration significantly reducing viability of larvae” value ([3]; injected in duct of Cuvier, 72 h) was 32 mg/kg. The highest tolerated amount ([3]; injected in duct of Cuvier, zebrafish embryos, 72 h) was 24 mg/kg, the “cytotoxicity relative to Bac7(1-16)” value [4] was “did not increase cytotoxicity relative to Bac7(1-16)” and the IC50 [5] was roughly 48 µM.
